The values below are quoted from earlier work in patent US20130267526A1, “HETEROCYCLIC COMPOUNDS AND THEIR USES” (Amgen, Inc., priority 2010, published 2013).

The subject of series [1] is model of systemic lupus erythematosis. The following applies: in vivo.
Series [2] has as its system mouse model of rheumatoid arthritis. The following applies: in vivo.
Series [3] relates to protein kinases.
In series [4] the target is T1, p110δ (Homo sapiens, UniProt O00329).
T1 sequence (O00329 1-1044): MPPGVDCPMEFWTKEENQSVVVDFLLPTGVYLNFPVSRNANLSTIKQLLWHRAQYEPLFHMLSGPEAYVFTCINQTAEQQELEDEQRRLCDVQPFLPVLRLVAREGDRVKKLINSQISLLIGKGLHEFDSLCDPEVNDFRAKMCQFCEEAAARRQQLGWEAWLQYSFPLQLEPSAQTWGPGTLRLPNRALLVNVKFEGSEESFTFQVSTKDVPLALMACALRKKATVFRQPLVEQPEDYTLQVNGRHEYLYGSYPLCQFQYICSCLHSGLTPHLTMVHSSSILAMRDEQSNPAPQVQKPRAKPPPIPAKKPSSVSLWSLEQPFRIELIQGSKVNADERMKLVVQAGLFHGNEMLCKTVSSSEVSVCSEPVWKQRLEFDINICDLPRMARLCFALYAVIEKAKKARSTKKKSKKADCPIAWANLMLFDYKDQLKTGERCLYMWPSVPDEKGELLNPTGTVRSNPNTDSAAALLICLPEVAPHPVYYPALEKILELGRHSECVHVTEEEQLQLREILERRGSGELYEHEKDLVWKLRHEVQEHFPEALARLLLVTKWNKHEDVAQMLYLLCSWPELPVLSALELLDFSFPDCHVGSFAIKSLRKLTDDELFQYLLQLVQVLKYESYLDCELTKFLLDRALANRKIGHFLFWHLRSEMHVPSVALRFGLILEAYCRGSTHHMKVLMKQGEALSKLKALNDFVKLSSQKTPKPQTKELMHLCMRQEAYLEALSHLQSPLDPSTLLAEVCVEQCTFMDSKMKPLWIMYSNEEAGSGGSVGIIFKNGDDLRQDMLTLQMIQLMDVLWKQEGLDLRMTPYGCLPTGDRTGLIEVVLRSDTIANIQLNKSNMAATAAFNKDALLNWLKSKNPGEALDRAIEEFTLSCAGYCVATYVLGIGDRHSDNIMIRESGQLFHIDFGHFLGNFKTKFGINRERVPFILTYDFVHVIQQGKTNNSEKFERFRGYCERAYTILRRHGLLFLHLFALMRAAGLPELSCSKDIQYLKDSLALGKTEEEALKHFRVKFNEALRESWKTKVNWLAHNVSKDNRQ

In series [5] the test system is ovalbumin-induced airway inflammation.
Series [6] relates to passive cutaneous anaphylaxis (PCA). The settings on record: absence of functional delta (IC 87114 and p110δ D910A mice).

On to `O=C1NC(=O)/C(=C\c2ccc3nccnc3c2)S1` [AS 605240], for which the “onset of disease in a model of systemic lupus erythematosis” value in series [1] was “delay onset of disease”. The “efficacy in a mouse model of rheumatoid arthritis” value in series [2] is “efficacious”.
As to `Cc1ccccc1-n1c(Cn2cnc3c(N)ncnc32)nc2cccc(C)c2c1=O` [IC87114], in series [3], the “activity against any protein kinases tested” value is “no activity”. Also, the “inhibition of p110δ” value in series [4] is listed as “high nanomolar range (triple digit)”. In series [5], the “inflammation and disease in murine asthma model” value was “significantly ameliorate”. Also, the “passive cutaneous anaphylaxis (PCA)” value in series [6] is “significantly reduced”.
